Measurements from patent US20130245110A1, “USE FOR CANNABINOIDS” (priority 2008, published 2013).
Where “and” joins values, the source holds several entries; their conditions need not be identical. Equal entries are not always repeated.

Tests used:
aorta = assay: Chronic treatment of rats, vascular responses in isolated arteries; assay type: in vivo, rat; details: aorta of rats treated for 2 weeks
C57B1/Ks db/db mouse = assay: Plasma insulin concentration; assay type: in vivo; details: db/db mice
Method: Inflammation is also a feature of type II diabetic animals and man. […] However, as a result of the C57B1/Ks genetic background rather than the C57B1/6, the mice show loss of pancreatic function from around 6/7 weeks of age and by 10 weeks show frank diabetes.
The mice were given chow diet (Bantin and Kingman, no 1 diet) and water ad lib. The mice were kept under controlled lighting conditions (lights on 08.00 h, 12 h light/12 h dark) and at a room temperature of 21°±1° C.
• Daily: Food and water intake • Twice weekly: Body weight and glucose • Day 1: Weigh mice, dose compounds, provide measured amount of food, provide measured amount of water • Days 2, 5 and 8: Fed blood glucose concentration • Day 9: Oral glucose tolerance • Days 12 and 16: Fed blood glucose concentration • Day 19: 24 hr glycaemic assay • Days 22, 26 and 29: Fed blood glucose concentration • Day 33: 24 hr glycaemic assay • Day 38: Fed blood glucose concentration • Day 39: Body composition by Dexascan in anaesthetised mice • Day 41: Termination. Take blood samples for glucose, free fatty acids, triglycerides, cholesterol, insulin and HbA

[1] = system: dietary induced obese (DIO) mouse model; assay: Percentage body fat by Dexascan; assay type: in vivo; details: DIO mice; day 28 Dexascan; pure THCV at 30-fold lower dose than rimonabant
Method: The following are a battery of tests used to elicit the effects of drugs on diseases including type I or II diabetes, obesity, dyslipidaemia, related metabolic disorders and cardiovascular disease. • a) Body weight: Bodyweights of all mice were measured twice weekly during the study. • b) Food intake: Food intake was measured by weight difference taking account of food wastage in the bottom of the cage. • c) Measurement of water consumption: Water intake was calculated daily for each animal, during the treatment period, by weight difference of the water bottle. • d) Oral Glucose Tolerance Test (OGTT): Glucose was dissolved in water (3 g/10 ml) and given to the mice orally at a rate of 3 g/kg. […] Samples were then analysed automatically using a SpectraMax-250 and SoftMax Pro software. • f) Plasma preparation: Blood was collected for the measurement of i) plasma insulin, ii) cholesterol, iii) free fatty acids or iv) triglyceride concentration. • i. Plasma insulin analysis: Plasma insulin was measured using 5 μl of plasma, compared with a mouse insulin standard using a 96-well micro-assay plate • ii. […] The samples were mixed and incubated for 5 minutes before reading at dual wavelengths of 500 and 660 nm. • iii. Plasma free fatty acids: 5 μl samples of plasma were measured into a 96-well assay plate, to which was added 0.2 ml of reagents NEFA C • iv. […]

C57B1/6 ob/ob mouse = assay: Liver triglyceride; assay type: in vivo; details: ob/ob mice, at termination, individual values
Method: Blood samples were also taken at −30 minutes for insulin analysis. • e) Blood Glucose analysis: Duplicate 20 μl samples of blood of were taken for each individual sample and placed in a 96-well assay plate. To each well was added 180 μl aliquots of glucose oxidase reagent. Samples were mixed and then left for approximately 30 minutes. Samples were then analysed automatically using a SpectraMax-250 and SoftMax Pro software. • f) Plasma preparation: Blood was collected for the measurement of i) plasma insulin, ii) cholesterol, iii) free fatty acids or iv) triglyceride concentration. • i. Plasma insulin analysis: Plasma insulin was measured using 5 μl of plasma, compared with a mouse insulin standard using a 96-well micro-assay plate • ii. Plasma cholesterol analysis: To each sample was added 200 μl of infinity cholesterol liquid stable reagent. The samples were mixed and incubated for 5 minutes before reading at dual wavelengths of 500 and 660 nm. • iii. Plasma free fatty acids: 5 μl samples of plasma were measured into a 96-well assay plate, to which was added 0.2 ml of reagents NEFA C • iv. […] Dedicated software was using to quantify amounts of bone and fat. The mice were lightly anaesthetised, sufficient to keep them quiescent during this non-invasive technique. • h) Energy expenditure measurements: Energy expenditure was measured by open circuit indirect calorimetry with mice in their home cages. […] Plasma leptin was measured in fed mice using the Crystal Chem Elisa assay. • j) Plasma adiponectin: Adiponectin exerts some of its weight reduction effects via the brain. […] Plasma adiponectin was measured in overnight fasted mice using the 96-well B-Bridge Elisa assay. • k) Plasma HDL-cholesterol: Plasma HDL-cholesterol was measured in fed mice using the kit from Trinity Biotech. • l) 24 h blood glucose profile: This was determined in order to ensure that changes in the diurnal control of blood glucose were detected. Thus blood samples were obtained at three hourly intervals throughout a continuous 24 h period. • m) Plasma haemoglobin AIC: Samples (10 μl) were analysed using the AIC. […]

C=C(C)[C@@H]1CCC(C)=C[C@H]1c1c(O)cc(CCCCC)cc1O [CBD, cannabidiol]
Maximal response to methoxamine (aorta): 1.63±0.21 g increase tension | Potency of acetylcholine (pEC50) (aorta): 5.37±0.40 | Plasma insulin during the 24 h glucose profiles (C57B1/Ks db/db mouse): no consistent effect was seen

CCCc1cc(O)c2c(c1)OC(C)(C)[C@@H]1CCC(C)=C[C@@H]21 [THCV, tetrahydrocannabivarin]
Percentage body fat [1]: at least as effective as rimonabant | Liver triglycerides concentration (C57B1/6 ob/ob mouse; 0.3 mg·kg−1 daily oral gavage (combination: both 0.3)): 17.16 and 11.16 and 14.94 and 15.48 and 9.10 and 16.72 and 9.33 and 14.97 | Liver triglycerides concentration (C57B1/6 ob/ob mouse; 0.3 mg·kg−1 daily oral gavage (combination: both 0.3), listed as pure THCV): increased | Liver triglycerides concentration (C57B1/6 ob/ob mouse; 3.0 mg·kg−1 daily oral gavage (combination: both 3.0)): 8.70 and 15.20 and 10.77 and 9.78 and 12.06 and 13.92 and 18.27 and 14.09
